Data on 12 compounds can be found in article PMC11117929, “Benzamide Trimethoprim Derivatives as Human Dihydrofolate Reductase Inhibitors—Molecular Modeling and In Vitro Activity Study” (Biomedicines, 2024).

Assay [1] has as its target T1, recombinant human DHFR (Homo sapiens, UniProt P00374).
T1 construct: purchased Sigma Aldrich (St. Louis, MO, USA)
T1 sequence (P00374 1-187): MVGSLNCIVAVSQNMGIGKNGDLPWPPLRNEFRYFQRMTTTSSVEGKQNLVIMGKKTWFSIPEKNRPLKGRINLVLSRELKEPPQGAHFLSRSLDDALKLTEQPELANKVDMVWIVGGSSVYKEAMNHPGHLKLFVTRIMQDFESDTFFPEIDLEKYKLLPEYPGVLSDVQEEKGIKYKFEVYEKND
The assay can be described thus: Dihydrofolate reductase (DHFR) inhibition assay (assay kit). Type of assay: biochemical. The conditions noted are these: mean of three assays ± S.D. From the text: All reagents were purchased from Fluka (Sigma-Aldrich, Poznań, Poland), Merck (Darmstadt, Germany), or Alfa Aesar (Karlsruhe, Germany) and used without further purification. Dichloromethane (DCM) and dimethylformamide (DMF) were stored in 4 Å molecular sieves. The Dihydrofolate Reductase Assay Kit was purchased from Sigma Aldrich (St. Louis, MO, USA).
The inhibition of dihydrofolate reductase by the new TMP analogs, that is, determining their effect on the activity of recombinant human DHFR, was tested according to the instructions provided by the manufacturer and used previously.
In all experiments, the mean values for three assays ± standard deviations (S.D.) were calculated. The results were submitted to statistical analysis using the Student’s t-test. Differences were considered significant at p < 0.05.

Assay [2] has as its target acetylcholinesterase (AChE). Set-up: method as in PMID 37834347. The conditions noted are these: cited from earlier work.
The target in assay [3] is β-secretase (BACE1). Further details: method as in PMID 37834347. As to conditions: cited from earlier work.
Assay [4] has as its system various cancer cells. Further details: method as in PMID 36680987. The conditions noted are these: cited from earlier work.
Assay [5] has as its system plasmid DNA. As to conditions: ethidium bromide displacement, netropsin as standard; cited from earlier work.

Take `COc1cc(C(=O)Nc2cccc(NC(=O)c3cc(OC)c(OC)c(OC)c3)c2)cc(OC)c1OC` [JW1]: the concentration for half-maximal inhibition (IC50) in assay [1] came to 8.5 ± 0.06 µM. Same read-out and setting: the figure for `COc1cc(OC)cc(C(=O)Nc2cccc(NC(=O)c3cc(OC)cc(OC)c3)c2)c1` [JW2] is 10.15 ± 0.02 µM; for `COc1ccc(C(=O)Nc2cccc(NC(=O)c3ccc(OC)c(OC)c3)c2)cc1OC` [JW3] it is 9.83 ± 0.03 µM; for `COc1ccc(C(=O)Nc2cccc(NC(=O)c3ccc(OC)cc3)c2)cc1` [JW4] it is 15.3 ± 0.04 µM. On the same count and under the same terms, the result for `COc1cc(C(=O)Nc2ccc(NC(=O)c3cc(OC)c(OC)c(OC)c3)cc2)cc(OC)c1OC` [JW5] reads 4.8 ± 0.05 µM. For the compound `COc1cc(OC)cc(C(=O)Nc2ccc(NC(=O)c3cc(OC)cc(OC)c3)cc2)c1` [JW6], the IC50 in assay [1] stood at 4.72 ± 0.05 µM. As to `COc1ccc(C(=O)Nc2ccc(NC(=O)c3ccc(OC)c(OC)c3)cc2)cc1OC` [JW7], the IC50 in assay [1] came out at 8.13 ± 0.06 µM.

`COc1ccc(C(=O)Nc2ccc(NC(=O)c3ccc(OC)cc3)cc2)cc1` [JW8]: the results for the IC50 in assay [1], in assay [2] and in assay [3] were 12.15 ± 0.02 µM, 0.056 µM and 9.01 µM, respectively. As for `COc1cc(C(=O)Nc2cccc([N+](=O)[O-])c2)cc(OC)c1OC` [MB1], the IC50 in assay [1] is 10.16 ± 0.01 µM. Turning to `COc1cc(NC(=O)c2cc(OC)c(OC)c(OC)c2)cc(OC)c1OC` [MB3], the IC50 in assay [1] amounted to 9.17 ± 0.01 µM. Moreover, the antiproliferative activity result in assay [4] is “showed antiproliferative activity”. Turning to `COc1cc(CNC(=O)c2cc(OC)c(OC)c(OC)c2)cc(OC)c1OC` [MB4], in assay [1], the IC50 was determined as 20.17 ± 0.03 µM. Also, the antiproliferative activity entry in assay [4] is on record as “showed antiproliferative activity”. In the case of `COc1cc(Cc2cnc(N)nc2N)cc(OC)c1OC` [TMP, trimethoprim], the “binding to plasmid DNA” value in assay [5] was “does not bind to the plasmid”.

As usually defined, the IC50 is the midpoint of a concentration-inhibition curve.
